In patent US7019001B2, “Substituted benzothiazole amide derivatives” (Hoffman-La Roche Inc., priority 2001, dated 2006):

Experiments:
[1] = biological target: T1, human adenosine A2A receptor (Homo sapiens, UniProt P29274); test: [3H]-SCH-58261 binding assay, human adenosine A2A receptor (CHO cell membranes, SPA); details: displacement of [3H]-SCH-58261 (1 nM); recombinant receptor in CHO membranes; Ki by Cheng-Prussoff equation; read-out: hA2 (pKi) (converted)
T1 construct: expressed in transfected cells; host or cells: CHO cells, semliki forest virus expression system; washed membrane pellet used
Method: Human Adenosine A2A Receptor
The human adenosine A2A receptor was recombinantly expressed in chinese hamster ovary (CHO) cells using the semliki forest virus expression system. Cells were harvested, washed twice by centrifugation, homogenised and again washed by centrifugation. The final washed membrane pellet was suspended in a Tris (50 mM) buffer containing 120 mM NaCl, 5 mM KCl, 2 mM CaCl2 and 10 mM MgCl2 (pH 7.4) (buffer A). The [^3H]-SCH-58261 (Dionisotti et al., 1997, Br J Pharmacol 121, 353; 1 nM) binding assay was carried out in 96-well plates in the presence of 2.5 μg of membrane protein, 0.5 mg of Ysi-poly-1-lysine SPA beads and 0.1 U adenosine deaminase in a final volume of 200 μl of buffer A. Non-specific binding was defined using xanthine amine congener (XAC; 2 μM). Compounds were tested at 10 concentrations from 10 μM–0.3 nM. All assays were conducted in duplicate and repeated at least two times. Assay plates were incubated for 1 hour at room temperature before centrifugation and then bound ligand determined using a Packard Topcount scintillation counter. IC50 values, the concentration where 50% of the […] binding is displaced, were calculated using a non-linear curve fitting program and Ki values calculated using the Cheng-Prussoff equation.

T1 sequence (P29274 whole entry): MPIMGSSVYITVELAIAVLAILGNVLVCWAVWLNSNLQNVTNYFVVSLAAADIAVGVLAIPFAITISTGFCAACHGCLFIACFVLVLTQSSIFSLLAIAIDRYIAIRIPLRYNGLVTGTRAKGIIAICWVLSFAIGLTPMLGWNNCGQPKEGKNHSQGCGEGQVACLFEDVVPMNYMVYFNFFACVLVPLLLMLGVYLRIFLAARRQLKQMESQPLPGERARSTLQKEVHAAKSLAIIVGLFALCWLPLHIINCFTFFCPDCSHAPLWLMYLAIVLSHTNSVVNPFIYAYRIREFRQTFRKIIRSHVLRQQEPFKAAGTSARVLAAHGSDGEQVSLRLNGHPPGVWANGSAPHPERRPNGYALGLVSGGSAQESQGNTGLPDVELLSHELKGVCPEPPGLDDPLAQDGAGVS

## COc1ccc(N2CCOCC2)c2sc(NC(=O)NC3CCCC3)nc12 [Example 37, 1-Cyclopentyl-3-(4-methoxy-7-morpholin-4-yl-benzothiazol-2-yl)-urea]
[1]
  Ki: 7.94 nM
other
  melting point: 191 to 194 °C
